In brackets after ≈: the same amount, converted by molar mass.
System: Pseudomonas aeruginosa FP 1456
Experiment: In vitro antibacterial activity, two-fold agar-plate dilution method (MIC)
Format: cell-based
Details: incubation at 37° C. for 20 hours; for MIC: FP1456, heart infusion agar, read-out: MIC (minimal inhibitory concentration)
Procedure: In vitro antibacterial activity was determined by the two-fold agar-plate dilution method as described below. One loopful of an overnight culture of each test strain in Trypticase-soy broth (10^6 viable cells per ml) was streaked on heart infusion agar (HI-agar) containing graded concentrations of representative test compound, and the minimal inhibitory concentration (MIC) was expressed in μg/ml after incubation at 37° C. for 20 hours.

| MIC | MIC (minimal inhibitory concentration) (heart infusion agar) | Structure (SMILES) |
| --- | --- | --- |
| 32 µg/mL (≈ 58.5 µM) |  | CC(C)(O/N=C(\C(=O)N[C@@H]1C(=O)N2C(C(=O)[O-])=C(C[n+]3ccccc3)CS[C@H]12)c1csc(N)n1)C(=O)O [Ceftazidime, reference compound] |
| 1 µg/mL |  | Cn1c(CCN)cc[n+]1CC1=C(C(=O)O)N2C(=O)[C@@H](NC(=O)/C(=N\OC(C)(C)C(=O)O)c3nsc(N)n3)[C@H]2SC1.O=S(=O)([O-])O [Compound (a), 3-[3-(2-aminoethyl)-2-methyl-1-pyrazolio]methyl-7β-[(Z)-2-(5-amino-1,2,4-thiadiazol-3-yl)-2-(1-carboxy-1-methylethoxyimino)acetamido]-3-cephem-4-carboxylic acid hydrogen sulfate] |
| 2 µg/mL (≈ 3.15 µM) |  | Cn1c(CCNC(=N)N)cc[n+]1CC1=C(C(=O)[O-])N2C(=O)[C@@H](NC(=O)/C(=N\OC(C)(C)C(=O)O)c3nsc(N)n3)[C@H]2SC1 [Compound (b), 3-{[3-(2-{[amino(imino)methyl]amino}ethyl)-2-methyl-1-pyrazolio]methyl}-7β-({(2Z)-2-(5-amino-1,2,4-thiadiazol-3-yl)-2-[(1-carboxy-1-methylethoxy)imino]ethanoyl}-amino)-3-cephem-4-carboxylate] |
|  | 2 µg/mL (≈ 3.37 µM) | Cn1cc(CCN)c[n+]1CC1=C(C(=O)[O-])N2C(=O)[C@@H](NC(=O)/C(=N\OC(C)(C)C(=O)O)c3nsc(N)n3)[C@H]2SC1 [Compound (c), 3-{[4-(2-aminoethyl)-2-methyl-1-pyrazolio]methyl}-7β-({(2Z)-2-(5-amino-1,2,4-thiadiazol-3-yl)-2-[(l-carboxy-1-methylethoxy)imino]ethanoyl}amino)-3-cephem-4-carboxylate] |
